The conditions of data set [1]: rhesus monkey, in vivo; for Tolerated: po. The method, then:
Compound IA (synthesis example 2 herein) was administered orally to groups of rhesus monkeys by continuous and intermittent regimens over periods of days or weeks. Physical signs were recorded and the absence of loose stool, and other overt physical signs, was taken as tolerance.

The subject of data set [2] is Aβ. Nature of the data set: CSF levels of Aβ post-dose in rhesus monkey. In kind it is in vivo.
For data set [3] the following is noted: mouse, in vivo, po. The method, then: Compound IIIA (prepared as described in Sparey et al, Bioorg. Med. Chem. Lett. (2005) 15, 4212-4216) was administered orally to groups of mice (n=10) via gavage in 0.5% methylcellulose by a variety of continuous and intermittent regimens over periods of several weeks, and body weights recorded twice-weekly as a measure of tolerance or otherwise of the drug treatment. Less than 20% loss of body weight after 21 days, with no other overt symptoms, was taken as tolerance, and the results are summarised in the following table: […]

In data set [4] the test system is Aβ. Nature of the data set: Plasma levels of Aβ after a single dose in mice. In kind it is in vivo. The following applies: single dose of 300 mg/Kg. The protocol:
(§1) Compound IIIA (prepared as described in Sparey et al, Bioorg. Med. Chem. Lett. (2005) 15, 4212-4216) was administered orally to groups of mice (n=10) via gavage in 0.5% methylcellulose by a variety of continuous and intermittent regimens over periods of several weeks, and body weights recorded twice-weekly as a measure of tolerance or otherwise of the drug treatment. Less than 20% loss of body weight after 21 days, with no other overt symptoms, was taken as tolerance, and the results are summarised in the following table:
(§2) Plasma levels of Aβ were monitored 4 hours, 1 day, 3 days, 4 days and 7 days after a single dose of 300 mg/Kg, and found to be (respectively), 0%, 0%, 0%, 67% and 85% of the baseline (control) level, indicating prolonged therapeutic efficacy from the single dose. Plasma levels of the drug had declined to zero within 4 days of the single dose.

Data set [5] can be described thus: Plasma levels of the drug after a single dose in mice. The format is in vivo. Particulars: single dose of 300 mg/Kg. The method, then:
as §1, §2

The next data set has as its system Aβ40. Description: CSF Aβ40 in rhesus monkeys, once-weekly dosing. The following applies: oral, once-weekly 30 mpk, over a 3 week period, relative to vehicle-treated controls. In kind it is in vivo. The protocol: (§3) Compound VIB (Example 23 herein) was administered orally to rhesus monkeys once-weekly at a dose of 30 mpk and levels of Aβ40 and Aβ42 in the cerebrospinal fluid (CSF) were monitored.

Another data set concerns Aβ42. Description: CSF Aβ42 in rhesus monkeys, once-weekly dosing. The format is in vivo. Particulars: oral, once-weekly 30 mpk, over a 3 week period, relative to vehicle-treated controls. The protocol:
as §3

Data set [6] in a line: Side effects in rhesus monkeys, once-weekly dosing. The following applies: oral, once-weekly 30 mpk. The format is in vivo. The method, then: as §3

Like-named read-outs stand apart in the source and are kept apart here.

Turning to `O=S(=O)(N[C@H]1C[C@@](c2cc(F)ccc2F)(S(=O)(=O)c2ccc(Cl)cc2)C1)C(F)(F)F` [Compound IA, N-[cis-3-[(4-chlorophenyl)sulfonyl]-3-(2,5-difluorophenyl)cyclobutyl]-1,1,1-trifluoromethanesulfonamide], the Tolerance result in data set [1] is “tolerated”. For the same compound, the Tolerated result in data set [1] (3 mg/kg) is recorded as “No”; in data set [1] (50 mg/kg), “Yes”; in data set [1] (200 mg/kg) it was “Yes”. The entries for the “Effect on CSF levels of Aβ” value in the data set with Aβ [2] (doses below 10 mg/Kg) and in the data set on Aβ [2] (weekly doses) were “do not effect Aβ levels appreciably” and “lower CSF Aβ significantly”, respectively.

Take `O=S1(=O)NC2(CN1CC(F)(F)F)C1CCC2Cc2cc(C=CCN3CCC(C(F)(F)F)CC3)ccc2C1` (stereo not shown) [Compound IIIA]: the Tolerated entry in data set [3] (50 mg/kg) is reported as “Yes”; in data set [3] (150 mg/kg) it was “No”; in data set [3] (300 mg/kg), “Yes”. The “Plasma levels of Aβ, % of the baseline (control) level” value worked out at 0% with Aβ [4] (4 hours after dose); 0% in the data set with Aβ [4] (1 day after dose); 0% in the data set with Aβ [4] (3 days after dose); 67% in the data set on Aβ [4] (4 days after dose); 85% in the data set on Aβ [4] (7 days after dose). The “Time until plasma levels of the drug had declined to zero” value in data set [5] is recorded as not above 4 days.

`O=S(=O)(N[C@H]1CC[C@@](c2cc(F)ccc2C(F)(F)F)(S(=O)(=O)c2ccc(C(F)(F)F)cc2)CC1)C(F)(F)F` [Compound VIB, 1,1,1-trifluoro-N-(4-[5-fluoro-2-(trifluoromethyl)phenyl]-4-{[4-(trifluoromethyl)phenyl]sulfonyl}cyclohexyl)methanesulfonamide]: the “Average reduction in CSF Aβ40 levels” value with Aβ40 was “approximately 40%”. Further, the “Average reduction in CSF Aβ42 levels” value in the data set on Aβ42 is “approximately 40%”. For the same compound, the GI toxicity result in data set [6] (3 week period) is given as “no evidence of GI toxicity”. Moreover, in data set [6] (unconnected with Notch signalling), the “Other side-effects (study terminated after 3 weeks)” value was “respiratory side-effects”.

The values are drawn from US20110263580A1, “METHOD FOR TREATING ALZHEIMER'S DISEASE AND RELATED CONDITIONS” (priority 2008, published 2011).
